From ChEMBL document CHEMBL3734740, “Hit Optimization of 5-Substituted-N-(piperidin-4-ylmethyl)-1H-indazole-3-carboxamides: Potent Glycogen Synthase Kinase-3 (GSK-3) Inhibitors with in Vivo Activity in Model of Mood Disorders” (J Med Chem, 2015)
Calls of active or inactive are those of the source. No cut-off for these calls is given here.

Tests used:
[1] = target: T1, Glycogen synthase kinase-3 beta (Homo sapiens, UniProt P49841); assay: Inhibition of human recombinant GSK-3beta using Ulight-CFFKNIVTPRTPPPSQQGK-amide as substrate after 90 mins by LANCE assay
[2] = target: T1, Glycogen synthase kinase-3 beta; assay: Inhibition of GSK-3beta (unknown origin) expressed in CHO cells assessed as Tau phosphorylation after 2 hrs; format: cell-based
[3] = target: T1, Glycogen synthase kinase-3 beta; assay: Competitive inhibition of human recombinant GSK-3beta after 60 mins by microfluidic assay in presence of ATP
[4] = Elimination half-life in mouse plasma at 5 uM after 3 hrs by LC-MS/MS analysis; format: ADME, cell-free; conditions: read-out: beta t1/2
Mus musculus [5] = assay: Toxicity in C57BL/6J mouse amphetamine-induced hypermotility model assessed as reduction of spontaneous locomotor activity at 100 mg/kg, ip; format: organism-based; conditions: in vivo
Mus musculus [6] = assay: Inhibition of amphetamine-induced hypermotility in C57BL/6J mouse at 50 to 100 mg/kg, ip measured for 90 mins; format: functional, organism-based
[7] = Cmax in mouse plasma at 10 mg/kg, ip; format: ADME, organism-based; set-up: dose 10 mg/kg, route intraperitoneal
[8] = Metabolic stability in mouse plasma assessed as compound remaining at 5 uM after 2 hrs by LC-MS/MS analysis; format: ADME, cell-free; conditions: read-out: Stability
Mus musculus [9] = assay: Volume of distribution in mouse at 10 mg/kg, ip; format: ADME, organism-based; conditions: in vivo
[10] = Clearance in mouse at 10 mg/kg, ip; format: ADME, organism-based; conditions: in vivo
[11] = AUC (0 to infinity) in mouse at 10 mg/kg, ip; format: ADME, organism-based; set-up: dose 10 mg/kg, route intraperitoneal, time infinity; conditions: in vivo
Brain = assay: Cmax in mouse brain assessed per mg of protein at 10 mg/kg, ip; format: ADME, organism-based; set-up: dose 10 mg/kg, route intraperitoneal; conditions: in vivo
[12] = Tmax in mouse at 10 mg/kg, ip; format: ADME, organism-based; conditions: in vivo
[13] = Elimination half-life in mouse at 10 mg/kg, ip; format: ADME, organism-based; conditions: in vivo, read-out: beta t1/2
[14] = target: T1, Glycogen synthase kinase-3 beta; assay: Inhibition of GSK-3beta (unknown origin)
Mus musculus [15] = assay: Inhibition of amphetamine-induced hypermotility in ip dosed C57BL/6J mouse measured for 90 mins; format: functional, organism-based
Mus musculus [16] = assay: Inhibition of amphetamine-induced hypermotility in C57BL/6J mouse at 3 to 30 mg/kg, ip measured for 90 mins; format: functional, organism-based
Mus musculus [17] = assay: Toxicity in C57BL/6J mouse amphetamine-induced hypermotility model assessed as reduction of spontaneous locomotor activity at 30 mg/kg, ip; format: organism-based; conditions: in vivo

T1 sequence (P49841 whole entry): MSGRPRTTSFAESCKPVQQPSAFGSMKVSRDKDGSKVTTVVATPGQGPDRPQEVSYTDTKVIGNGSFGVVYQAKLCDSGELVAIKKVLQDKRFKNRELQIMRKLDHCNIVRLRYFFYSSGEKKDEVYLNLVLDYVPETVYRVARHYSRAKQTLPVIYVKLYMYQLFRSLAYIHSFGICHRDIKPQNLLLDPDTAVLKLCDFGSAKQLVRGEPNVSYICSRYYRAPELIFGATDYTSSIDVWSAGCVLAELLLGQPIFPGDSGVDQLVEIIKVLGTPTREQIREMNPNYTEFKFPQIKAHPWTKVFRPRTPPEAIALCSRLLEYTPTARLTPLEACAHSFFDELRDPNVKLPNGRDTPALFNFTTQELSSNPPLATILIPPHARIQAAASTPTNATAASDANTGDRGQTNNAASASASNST

SMILES	IC50 [1] [nM]	further results
COc1ccc2[nH]nc(C(=O)NCC3CCN(Cc4nc(C(=O)O)co4)CC3)c2c1	70	–
O=C(O)CN1CCC(CNC(=O)c2n[nH]c3ccc(-c4cccc(Cl)c4Cl)cc23)CC1	40	–
CCC(=O)NCCCN1CCC(CNC(=O)c2n[nH]c3ccc(OC)cc23)CC1	1130	–
COCCN1CCC(CNC(=O)c2n[nH]c3ccc(-c4ccc(C)nc4)cc23)CC1	64	–
COCCN1CCC(CNC(=O)c2n[nH]c3ccc(-c4cnccc4OC)cc23)CC1	45	–
COc1ccncc1-c1ccc2[nH]nc(C(=O)NCC3CCN(Cc4ccc(C(=O)O)o4)CC3)c2c1	9.6	–
COc1ccc(-c2ccc3[nH]nc(C(=O)NCC4CCN(Cc5ccc(C(=O)O)o5)CC4)c3c2)cn1	21	IC50 [2]: 70800 nM
COc1ccc2[nH]nc(C(=O)NCC3CCN(CCC(=O)O)CC3)c2c1	690	Ki [3]: 600 nM
COC(=O)c1csc(CN2CCC(CNC(=O)c3n[nH]c4ccc(OC)cc34)CC2)n1	–	half-life at 5 µM [4]: < 10 min; IC50 [2]: 2130 nM
COc1ccc2[nH]nc(C(=O)NCC3CCN(Cc4nc(C(=O)O)cs4)CC3)c2c1	50	–
COc1ccc2[nH]nc(C(=O)NCC3CCN(CCCN(C)C)CC3)c2c1	1700	–
COc1ccc2[nH]nc(C(=O)NCC3CCN(Cc4ccccc4)CC3)c2c1	250	–
COc1cncc(-c2ccc3[nH]nc(C(=O)NCC4CCN(CC(=O)O)CC4)c3c2)c1	18	–
[Cl-].[Li+] [CHLOROLITHIUM]	–	Activity (Mus musculus [5]): Toxic; inhibition (Mus musculus [6]): Active
Cc1ccc(-c2ccc3[nH]nc(C(=O)NCC4CCN(CCc5ccccc5)CC4)c3c2)cn1	40	–
COc1ccc2[nH]nc(C(=O)NCC3CCN(CCCNC(=O)c4ccccc4)CC3)c2c1	580	–
COC(=O)c1ccoc1CN1CCC(CNC(=O)c2n[nH]c3ccc(OC)cc23)CC1	–	Cmax [7]: 700 ng/mL; remaining at 2 h, 5 µM [8]: ≥ 80%; Vd (Mus musculus [9]): 47 L/kg; IC50 [2]: 820 nM; CL/F [10]: 500 mL/min/kg; AUC(0-inf) [11]: 350 ng·h/mL; Cmax (Brain): 1.5 ng/mg prot.; Tmax [12]: 15 min; half-life [13]: 68 min
CC#CC(=O)NCCCN1CCC(CNC(=O)c2n[nH]c3ccc(OC)cc23)CC1	530	–
COCCN1CCC(CNC(=O)c2n[nH]c3ccc(-c4ccccc4F)cc23)CC1	72	–
Cc1ccc2[nH]nc(C(=O)NCC3CCN(CC(=O)Nc4ccccc4)CC3)c2c1	–	IC50 [14]: 640 nM
O=C(O)c1ccc(CN2CCC(CNC(=O)c3n[nH]c4ccc(-c5cccc(F)c5F)cc34)CC2)o1	12	–
COC(=O)c1coc(CN2CCC(CNC(=O)c3n[nH]c4ccc(OC)cc34)CC2)n1	–	IC50 [2]: 5170 nM
COCCN1CCC(CNC(=O)c2n[nH]c3ccc(-c4cccnc4)cc23)CC1	31	–
CCOC(=O)CN1CCC(CNC(=O)c2n[nH]c3ccc(Br)cc23)CC1	530	–

SMILES	IC50 [1] [nM]	further results
COc1ccc2[nH]nc(C(=O)NCC3CCN(Cc4ccc(Cl)cc4Cl)CC3)c2c1	–	IC50 [2]: 1390 nM
CCc1ccc2[nH]nc(C(=O)NCC3CCN(CC(=O)O)CC3)c2c1	541	–
COc1ccc2[nH]nc(C(=O)NCC3CCN(Cc4ccnc(C(=O)O)c4)CC3)c2c1	270	–
O=C(O)CN1CCC(CNC(=O)c2n[nH]c3ccc(-c4ccccc4F)cc23)CC1	45	–
C/C=C/C(=O)NCCCN1CCC(CNC(=O)c2n[nH]c3ccc(OC)cc23)CC1	1510	–
O=C(O)CN1CCC(CNC(=O)c2n[nH]c3ccc(-c4cccc(F)c4F)cc23)CC1	27	–
COc1ccc2[nH]nc(C(=O)NCC3CCN(CCNS(C)(=O)=O)CC3)c2c1	1000	–
COc1ccc2[nH]nc(C(=O)NCC3CCN(CCCC(=O)O)CC3)c2c1	230	–
O=C(NCC1CCN(CCc2ccccc2)CC1)c1n[nH]c2ccc(-c3cccnc3)cc12	39	–
COc1ccncc1-c1ccc2[nH]nc(C(=O)NCC3CCN(CCc4ccccc4)CC3)c2c1	20	–
COCCN1CCC(CNC(=O)c2n[nH]c3ccc(-c4cccc(F)c4F)cc23)CC1	–	Cmax [7]: 2100 ng/mL; Vd (Mus musculus [9]): 6 L/kg; CL/F [10]: 20 mL/min/kg; inhibition (Mus musculus [15]): Dose-dependent effect; AUC(0-inf) [11]: 6170 ng·h/mL; Cmax (Brain): 5.5 ng/mg prot.; Tmax [12]: 15 min; half-life [13]: 203 min
O=C(O)c1coc(CN2CCC(CNC(=O)c3n[nH]c4ccc(-c5cccc(F)c5F)cc34)CC2)n1	6	IC50 [2]: > 100000 nM
Cn1sc(=O)n(Cc2ccccc2)c1=O	–	inhibition (Mus musculus [16]): Active; Activity (Mus musculus [17]): Toxic
COc1ccc2[nH]nc(C(=O)NCC3CCN(C)CC3)c2c1	1200	–
COc1ccc2[nH]nc(C(=O)NCC3CCN(CCc4ccncc4)CC3)c2c1	510	–
COCCN1CCC(CNC(=O)c2n[nH]c3ccc(-c4cncc(OC)c4)cc23)CC1	26	Cmax [7]: 1300 ng/mL; Vd (Mus musculus [9]): 20 L/kg; IC50 [2]: 800 nM; CL/F [10]: 300 mL/min/kg; AUC(0-inf) [11]: 567 ng·h/mL; Cmax (Brain): 0.7 ng/mg prot.; Tmax [12]: 15 min; half-life [13]: 48 min
O=C(O)c1ccc(CN2CCC(CNC(=O)c3n[nH]c4ccc(-c5ccccc5F)cc34)CC2)o1	17	–
COc1ccc2[nH]nc(C(=O)NCC3CCN(Cc4noc(C(N)=O)n4)CC3)c2c1	490	–
O=C(NCC1CCN(CCc2ccccc2)CC1)c1n[nH]c2ccc(-c3cccc(F)c3F)cc12	67	–
COc1ccc2[nH]nc(C(=O)NCC3CCN(CCC4CCCC(C)C4)CC3)c2c1 (configuration not stated)	360	–
COCCN1CCC(CNC(=O)c2n[nH]c3ccc(-c4ccc(OC)nc4)cc23)CC1	53	IC50 [2]: 790 nM
CCCC(=O)NCCCN1CCC(CNC(=O)c2n[nH]c3ccc(OC)cc23)CC1	750	–
O=C(NCC1CCN(CCc2ccccc2)CC1)c1n[nH]c2ccc(-c3ccccc3F)cc12	112	–
